We go through three molecules from patent US9670261B2 (Sanofi, priority 2012, dated 2017).

SMILES strings stand for the structures. *1 amine or outer side, *2 acyl side, *3 side chain or, on linkers, in order; H or OH if unused. Where a SMILES comes first, the peptide text is derived from it. Side-chain parts run from the residue outwards. [ ]: non-standard residue; d: D form. The star is where a group is joined. γGlu = O=C(O)[C@H](CCC(=O)[*:2])N[*:1]; Stearoyl = CCCCCCCCCCCCCCCCCC(=O)*; Palmitoyl = CCCCCCCCCCCCCCCC(=O)*; Aib = CC(C)(N)C(=O)O

Data set [1] relates to female diet-induced obese (DIO) C57BL/6NCrl mice. Nature of the data set: Body weight in DIO mice, 14 weeks of prefeeding with high-fat diet (method 2). Format: in vivo. Here is the method:
Female C57BL/6NCrl mice were housed in groups in a specific pathogen-free barrier facility on a 12 h light/dark cycle with free access to water and high-fat diet. After 14 weeks on high-fat diet, mice were stratified to treatment groups (n=8), so that each group had similar mean body weight.
An aged-matched group with ad libitum access to standard chow and water was included as standard control group.
Before the experiment, mice were subcutaneously (s.c.) injected with vehicle solution and weighed for 3 days to acclimate them to the procedures.
Body weight was recorded daily.
Statistical analyses were performed with Everstat 6.0 by repeated measures two-way ANOVA and Dunnett's post-hoc analyses (glucose profile) and 1-way-ANOVA, followed by Dunnett's post-hoc test (body weight, body fat). Differences versus vehicle-treated DIO control mice were considered statistically significant at the p<0.05 level.
Female obese C57BL/6NCrl mice were treated for 3 weeks once daily subcutaneously in the late afternoon, prior the end of the light phase (12 h lights on) with 10 μg/kg SEQ ID NO: 9 and SEQ ID NO: 21 or vehicle. Body weight was recorded daily.

Data set [2] is described as follows: Pharmacokinetic testing in Göttinger minipigs, s.c. The format is in vivo. The following applies: female, minipig, plasma, sc, Mini pigs, 0.1 mg/kg s.c.
Method: Female Göttinger minipigs were dosed 0.1 mg/kg subcutaneously (s.c.). Blood samples were collected after 0.25, 0.5, 1, 2, 4, 8, 24, 32, 48, 56 and 72 hours post application. Plasma samples were analyzed after protein precipitation via liquid chromatography mass spectrometry (LC/MS). PK parameters and half-life were calculated using WinonLin Version 5.2.1 (non-compartment model).
The subject of data set [3] is female diabetic dbdb-mice. Nature of the data set: Glucose, HbA1c and oral glucose tolerance in diabetic dbdb-mice, chronic treatment (method 4). The format is in vivo. Here is the method: 8 week old, female diabetic dbdb-mice of mean non-fasted glucose value of 14.5 mmol/l and a body weight of 37-40 g were used. Mice were individually marked and were adapted to housing conditions for at least one week.
7 days prior to study start, baseline values for non-fasted glucose and HbA1c were determined, 5 days prior to study start, mice were assigned to groups and cages (5 mice per cage, 10 per group) according to their HbA1c values to ensure even distribution of lower and higher values between groups (stratification).
Mice were treated for 4 weeks, by once daily subcutaneous administration 3 hours prior to the dark phase (6 pm to 6 am). Blood samples from a tail tip incision were obtained for HbA1c on study day 21 and oral glucose tolerance was assessed in the 4th week. Oral glucose tolerance test was done in the morning without prior extra compound administration to majorly assess the effect of chronic treatment and less of acute compound administration. Mice were fasted for 4 hours prior to oral glucose administration (2 g/kg, t=0 min). Blood samples were drawn prior to glucose administration and at 15, 30, 60, 90, 120, and 180 min thereafter. Feed was returned after the last blood sampling. Results are represented as change from baseline, glucose in mmol/l and HbA1c in %.
Statistical analyses are performed with Everstat Version 6.0 based on SAS by 1-way-ANOVA, followed by Dunnett's post-hoc test against vehicle-control. Differences are considered statistically significant at the p<0.05 level.
Female dbdb-mice, received 3 and 10 μg/kg of SEQ ID NO: 16 and 10 μg/kg of SEQ ID NO: 21 or phosphate buffered saline (vehicle control) once daily, subcutaneously over four weeks.

In a further data set the target is T1, human GIP receptor (Homo sapiens, UniProt P48546).
T1 construct: expressed in transfected cells
T1 sequence (P48546 22-466): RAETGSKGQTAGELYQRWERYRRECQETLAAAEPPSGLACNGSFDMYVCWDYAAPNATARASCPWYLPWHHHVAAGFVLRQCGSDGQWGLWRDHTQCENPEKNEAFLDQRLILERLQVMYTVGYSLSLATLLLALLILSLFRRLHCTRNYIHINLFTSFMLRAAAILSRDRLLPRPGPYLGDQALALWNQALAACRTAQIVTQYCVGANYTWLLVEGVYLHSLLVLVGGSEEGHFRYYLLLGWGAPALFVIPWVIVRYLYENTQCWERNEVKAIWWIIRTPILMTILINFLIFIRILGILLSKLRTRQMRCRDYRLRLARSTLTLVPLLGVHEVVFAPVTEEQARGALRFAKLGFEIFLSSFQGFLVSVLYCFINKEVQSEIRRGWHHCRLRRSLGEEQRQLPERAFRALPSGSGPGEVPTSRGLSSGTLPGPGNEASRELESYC
Briefly: cAMP response (HTRF) of HEK-293 cells stably expressing human GIP receptor. Format: cell-based. The following applies: Table 7; cAMP formation; read-out: EC50 hGIP R. Here is the method: cAMP content of cells was determined using a kit from Cisbio Corp. (cat. no. 62AM4PEC) based on HTRF (Homogenous Time Resolved Fluorescence). For preparation, cells were split into T175 culture flasks and grown overnight to near confluency in medium (DMEM/10% FBS). Medium was then removed and cells washed with PBS lacking calcium and magnesium, followed by proteinase treatment with accutase (Sigma-Aldrich cat. no. A6964). Detached cells were washed and resuspended in assay buffer (1×HBSS; 20 mM HEPES, 0.1% BSA, 2 mM IBMX) and cellular density determined. They were then diluted to 400000 cells/ml and 25 μl-aliquots dispensed into the wells of 96-well plates. For measurement, 25 μl of test compound in assay buffer was added to the wells, followed by incubation for 30 minutes at room temperature.

The subject of data set [4] is non-fasted female diabetic dbdb-mice. Briefly: Glucose lowering in non-fasted female diabetic dbdb-mice. Format: in vivo. The following applies: 3 μg/kg s.c., at 240 min; baseline 20-22 mmol/l. The text has this:
Female diabetic dbdb-mice of mean non-fasted glucose value of 20-22 mmol/l and a body weight of 42 g+/−0.6 g (SEM) were used. Mice were individually marked and were adapted to housing conditions for at least one week.
3-5 days prior to study start mice were assigned to groups and cages (4 mice per cage, 8 per group) according to their non-fasted glucose values to ensure even distribution of lower and higher values between groups (stratification). On the study day, mice were weighed and dosed (t=0). Immediately prior to compound administration feed was removed while water remained available, and a first blood sample at a tail incision was drawn (baseline). Further blood samples were drawn at the tail incision at 30, 60, 90, 120, 240, 360, and 480 min.
Statistical analyses are performed with Everstat Version 6.0 based on SAS by 2-way-ANOVA on repeated measures, followed by Dunnett's post-hoc test against vehicle-control. Differences are considered statistically significant at the p<0.05 level.
Female dbdb-mice, received 3 μg/kg of SEQ ID NO: 14, SEQ ID NO: 21 or phosphate buffered saline (vehicle control) subcutaneously, at time 0 min.

Data set [5] is described as follows: Pharmacokinetic testing in mice, s.c. The conditions noted are these: mouse, plasma, sc, 1 mg/kg.
Method: Mice were dosed 1 mg/kg subcutaneously (s.c.). The mice were sacrified and blood samples were collected after 0.25, 0.5, 1, 2, 4, 8, 16 and 24 hours post application. Plasma samples were analyzed after protein precipitation via liquid chromatography mass spectrometry (LC/MS). PK parameters and half-life were calculated using WinonLin Version 5.2.1 (non-compartment model).
A further data set concerns the target T2, human glucagon receptor (Homo sapiens, UniProt P47871).
T2 construct: expressed in transfected cells
Briefly: cAMP response (HTRF) of HEK-293 cells stably expressing human glucagon receptor. Format: cell-based. The conditions noted are these: Table 7; cAMP formation; read-out: EC50 hGLUC R. Background: In TR-FRET formats the signal depends on donor and acceptor labels being close together.

Another data set deals with T3, human GLP-1 receptor (Homo sapiens, UniProt P43220).
T3 construct: expressed in transfected cells
T3 sequence (P43220 24-463): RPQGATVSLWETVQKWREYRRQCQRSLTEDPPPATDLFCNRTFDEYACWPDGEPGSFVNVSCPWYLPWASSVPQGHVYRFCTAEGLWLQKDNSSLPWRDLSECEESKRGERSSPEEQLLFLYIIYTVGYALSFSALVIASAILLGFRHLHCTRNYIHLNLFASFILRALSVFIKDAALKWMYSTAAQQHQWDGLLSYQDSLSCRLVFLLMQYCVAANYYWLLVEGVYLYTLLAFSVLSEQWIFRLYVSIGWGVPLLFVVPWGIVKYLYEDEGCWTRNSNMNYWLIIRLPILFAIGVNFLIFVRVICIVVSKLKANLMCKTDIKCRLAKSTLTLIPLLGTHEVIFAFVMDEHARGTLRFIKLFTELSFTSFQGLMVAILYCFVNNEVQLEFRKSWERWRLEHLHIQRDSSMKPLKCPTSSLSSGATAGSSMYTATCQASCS
Briefly: cAMP response (HTRF) of HEK-293 cells stably expressing human GLP-1 receptor. The following applies: Table 7; cAMP formation; read-out: EC50 hGLP-1 R. The format is cell-based. In short, it runs like this: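 After near-confluent growth in DMEM with 10% FBS, cells were washed in Ca/Mg-free PBS, lifted with accutase and diluted to 400000 cells/ml in IBMX (2 mM)-containing HEPES-buffered HBSS with 0.1% BSA. Compounds were applied for 30 minutes at room temperature before homogeneous time-resolved fluorescence quantitation of cAMP.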

The term Cmax denotes the peak of the concentration-time curve. A word on the half-life: it is the time needed for the level to fall by half in the phase considered. A high value points to slow decline. As a reminder, the EC50 is the concentration needed to bring the measured effect to its halfway point.

T2 sequence (P47871 26-477): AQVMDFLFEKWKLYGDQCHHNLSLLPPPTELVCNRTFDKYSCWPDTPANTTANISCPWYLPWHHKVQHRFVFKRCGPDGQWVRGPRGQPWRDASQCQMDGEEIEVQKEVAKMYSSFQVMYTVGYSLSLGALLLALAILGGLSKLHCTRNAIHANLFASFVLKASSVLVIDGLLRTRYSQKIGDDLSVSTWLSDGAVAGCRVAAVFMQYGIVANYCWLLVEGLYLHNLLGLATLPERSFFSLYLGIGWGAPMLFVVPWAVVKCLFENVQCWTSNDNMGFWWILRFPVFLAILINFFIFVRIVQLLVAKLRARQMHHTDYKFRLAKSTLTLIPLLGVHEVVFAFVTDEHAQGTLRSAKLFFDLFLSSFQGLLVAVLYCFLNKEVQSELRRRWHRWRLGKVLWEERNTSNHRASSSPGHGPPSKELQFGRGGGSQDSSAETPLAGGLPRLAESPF

Regarding `CCCCCCCCCCCCCCCCCC(=O)N[C@@H](CCC(=O)NCCCC[C@H](NC(=O)[C@H](CCC(N)=O)NC(=O)[C@@H](NC(=O)[C@H](CO)NC(=O)[C@H](CC(C)C)NC(=O)[C@H](CC(=O)O)NC(=O)[C@H](CO)NC(=O)[C@@H](NC(=O)[C@H](Cc1ccccc1)NC(=O)[C@@H](NC(=O)CNC(=O)[C@H](CCC(=O)O)NC(=O)C(C)(C)NC(=O)[C@@H](N)Cc1ccc(O)cc1)[C@@H](C)O)[C@@H](C)O)[C@@H](C)CC)C(=O)N[C@@H](CCC(=O)O)C(=O)N[C@@H](CO)C(=O)N[C@@H](CCCNC(=N)N)C(=O)N[C@@H](C)C(=O)N[C@@H](C)C(=O)N[C@@H](CCC(N)=O)C(=O)N[C@@H](CCC(=O)O)C(=O)N[C@@H](Cc1ccccc1)C(=O)N[C@H](C(=O)N[C@@H](CCC(=O)O)C(=O)N[C@@H](Cc1c[nH]c2ccccc12)C(=O)N[C@@H](CC(C)C)C(=O)N[C@@H](CCCCN)C(=O)N[C@@H](C)C(=O)NCC(=O)NCC(=O)N1CCC[C@H]1C(=O)N[C@@H](CO)C(=O)N[C@@H](CO)C(=O)NCC(=O)N[C@@H](C)C(=O)N1CCC[C@H]1C(=O)N1CCC[C@H]1C(=O)N1CCC[C@H]1C(=O)N[C@@H](CO)C(N)=O)[C@@H](C)CC)C(=O)O` [SEQ ID NO: 21, Y-Aib-E-G-T-F-T-S-D-L-S-I-Q-K(γE-x70)-ESRAAQEFIEWLKAGGPSSGAPPPS-NH2] (H-Y[Aib]EGTFTSDLSIQK([γGlu-Stearoyl])ESRAAQEFIEWLKAGGPSSGAPPPS-NH2), in data set [1] (10 μg/kg s.c. once daily, 3 weeks), the “decrease of body weight, relative change from baseline” value is reported as no more than 18.0%. The molecule further displayed an Overall weight change in data set [1] (10 μg/kg, 3-week treatment, mean ± SEM) of -7.3 ± 0.7 g. In data set [2], this molecule had a Cmax of 479 ng/mL and a half-life of 19.1 h. Also, in data set [3] (once daily s.c., oral glucose 2 g/kg in the 4th week), the oral glucose tolerance entry is “improved oral glucose tolerance”. In addition, the “reduction of AUC under the glucose curve compared to vehicle control” value in data set [3] (oral glucose tolerance test, p<0.05) is “reached statistical significance”. For the same molecule, the EC50 on human GIP receptor is 0.0064 nM. The “maximal effect, glucose reduction” value in data set [4] lay within 10 to 12 mmol/L. In data set [5], the maximum concentration (Cmax) came to 5050 ng/mL and the half-life was 4 h.

With `CCCCCCCCCCCCCCCC(=O)N[C@@H](CCC(=O)NCCCC[C@H](NC(=O)[C@H](CCC(N)=O)NC(=O)[C@@H](NC(=O)[C@H](CO)NC(=O)[C@H](CC(C)C)NC(=O)[C@H](CC(=O)O)NC(=O)[C@H](CO)NC(=O)[C@@H](NC(=O)[C@H](Cc1ccccc1)NC(=O)[C@@H](NC(=O)CNC(=O)[C@H](CCC(=O)O)NC(=O)C(C)(C)NC(=O)[C@@H](N)Cc1ccc(O)cc1)[C@@H](C)O)[C@@H](C)O)[C@@H](C)CC)C(=O)N[C@@H](CC(=O)O)C(=O)N[C@@H](CO)C(=O)N[C@@H](CCCNC(=N)N)C(=O)N[C@@H](C)C(=O)N[C@@H](C)C(=O)N[C@@H](CCC(N)=O)C(=O)N[C@@H](CC(=O)O)C(=O)N[C@@H](Cc1ccccc1)C(=O)N[C@H](C(=O)N[C@@H](CCC(=O)O)C(=O)N[C@@H](Cc1c[nH]c2ccccc12)C(=O)N[C@@H](CC(C)C)C(=O)N[C@@H](CCCCN)C(=O)N[C@@H](C)C(=O)NCC(=O)NCC(=O)N1CCC[C@H]1C(=O)N[C@@H](CO)C(=O)N[C@@H](CO)C(=O)NCC(=O)N[C@@H](C)C(=O)N1CCC[C@H]1C(=O)N1CCC[C@H]1C(=O)N1CCC[C@H]1C(=O)N[C@@H](CO)C(N)=O)[C@@H](C)CC)C(=O)O` [SEQ ID NO: 22, Y-Aib-E-G-T-F-T-S-D-L-S-I-Q-K(γE-x53)-DSRAAQDFIEWLKAGGPSSGAPPPS-NH2] (H-Y[Aib]EGTFTSDLSIQK([γGlu-Palmitoyl])DSRAAQDFIEWLKAGGPSSGAPPPS-NH2), the EC50 at human glucagon receptor is 11.6 nM.

On to `CCCCCCCCCCCCCCCC(=O)N[C@@H](CCC(=O)NCCCC[C@H](NC(=O)[C@H](CCC(N)=O)NC(=O)[C@@H](NC(=O)[C@H](CO)NC(=O)[C@H](CC(C)C)NC(=O)[C@H](CC(=O)O)NC(=O)[C@H](CO)NC(=O)[C@@H](NC(=O)[C@H](Cc1ccccc1)NC(=O)[C@@H](NC(=O)CNC(=O)[C@H](CCC(=O)O)NC(=O)C(C)(C)NC(=O)[C@@H](N)Cc1ccc(O)cc1)[C@@H](C)O)[C@@H](C)O)[C@@H](C)CC)C(=O)N[C@@H](CCC(=O)O)C(=O)N[C@@H](CCCCN)C(=O)N[C@@H](CCCNC(=N)N)C(=O)N[C@@H](C)C(=O)N[C@@H](C)C(=O)N[C@@H](CCC(N)=O)C(=O)N[C@@H](CCC(=O)O)C(=O)N[C@@H](Cc1ccccc1)C(=O)N[C@H](C(=O)N[C@@H](CCC(=O)O)C(=O)N[C@@H](Cc1c[nH]c2ccccc12)C(=O)N[C@@H](CC(C)C)C(=O)N[C@@H](CCCCN)C(=O)N[C@@H](C)C(=O)NCC(=O)NCC(=O)N1CCC[C@H]1C(=O)N[C@@H](CO)C(=O)N[C@@H](CO)C(=O)NCC(=O)N[C@@H](C)C(=O)N1CCC[C@H]1C(=O)N1CCC[C@H]1C(=O)N1CCC[C@H]1C(=O)N[C@@H](CO)C(N)=O)[C@@H](C)CC)C(=O)O` [SEQ ID NO: 34, Y-Aib-E-G-T-F-T-S-D-L-S-I-Q-K(γE-x53)-EKRAAQEFIEWLKAGGPSSGAPPPS-NH2] (H-Y[Aib]EGTFTSDLSIQK([γGlu-Palmitoyl])EKRAAQEFIEWLKAGGPSSGAPPPS-NH2), for which, at human GLP-1 receptor, the EC50 is 0.0046 nM. In data set [5], this molecule gave a Cmax of 5130 ng/mL and a half-life of 2.8 h. The EC50 on human glucagon receptor turned out to be 11.6 nM.
